Target: Vps34 (Homo sapiens, UniProt Q8NEB9)
Test: ELISA assay of Vps34 kinase activity
Assay type: biochemical
Conditions: Fig. S4

Chain of Vps34 (Q8NEB9 whole entry): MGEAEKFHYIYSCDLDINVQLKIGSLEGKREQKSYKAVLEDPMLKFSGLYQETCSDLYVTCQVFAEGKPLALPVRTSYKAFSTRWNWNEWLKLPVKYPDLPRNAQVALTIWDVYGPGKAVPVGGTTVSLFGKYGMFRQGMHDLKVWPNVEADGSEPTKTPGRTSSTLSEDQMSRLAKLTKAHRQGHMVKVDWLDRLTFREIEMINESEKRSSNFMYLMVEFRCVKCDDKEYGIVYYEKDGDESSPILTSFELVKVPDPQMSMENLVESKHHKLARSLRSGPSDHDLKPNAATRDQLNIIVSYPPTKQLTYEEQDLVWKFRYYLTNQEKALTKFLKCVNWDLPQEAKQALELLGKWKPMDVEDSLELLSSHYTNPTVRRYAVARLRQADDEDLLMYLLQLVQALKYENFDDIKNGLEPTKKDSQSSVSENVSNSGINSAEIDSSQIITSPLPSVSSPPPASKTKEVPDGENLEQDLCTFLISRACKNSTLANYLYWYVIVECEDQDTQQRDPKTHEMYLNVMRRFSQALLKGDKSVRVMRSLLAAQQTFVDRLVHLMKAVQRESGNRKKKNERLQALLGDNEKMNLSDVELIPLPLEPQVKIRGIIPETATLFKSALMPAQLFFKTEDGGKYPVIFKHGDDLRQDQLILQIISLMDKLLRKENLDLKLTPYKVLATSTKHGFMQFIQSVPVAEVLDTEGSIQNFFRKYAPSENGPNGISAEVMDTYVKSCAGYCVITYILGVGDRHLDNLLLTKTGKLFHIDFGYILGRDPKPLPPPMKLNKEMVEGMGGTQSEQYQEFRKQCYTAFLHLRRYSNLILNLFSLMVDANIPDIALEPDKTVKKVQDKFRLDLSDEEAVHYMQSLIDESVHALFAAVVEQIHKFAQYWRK

## O=C1/C(=C/C=C/c2ccccc2)Oc2cc(O)ccc21 [1d]
  Vps34 inhibition of analogues, SAR (in words): abolishment of activity
